The values that follow come from patent US9850283B2, “Macrocyclic inhibitors of the PD-1/PD-L1 and CD80(B7-1)/PD-L1 protein/protein interactions” (BRISTOL-MYERS SQUIBB COMPANY, priority 2013, dated 2017).

Where two headings read alike, the source gives them in different places. Positions of bridges follow the written chain, without caps; N, C: chain ends. Non-standard residues stand in square brackets, D forms with d. Residues, ends and D or L forms follow the SMILES beside them. Ala(benzothiazol-2-yl) = N[C@@H](Cc1nc2ccccc2s1)C(=O)O; Phe(3,4-(OMe)2) = COc1ccc(C[C@H](N)C(=O)O)cc1OC; Bta = N[C@@H](Cc1csc2ccccc12)C(=O)O; Hyp = O=C(O)[C@@H]1C[C@@H](O)CN1; NMeF = CN[C@@H](Cc1ccccc1)C(=O)O; tBuAla = CC(C)(C)C[C@H](N)C(=O)O; NMeE = CN[C@@H](CCC(=O)O)C(=O)O; NMeNle = CCCC[C@H](NC)C(=O)O; NMeA = CN[C@@H](C)C(=O)O; Dab = NCC[C@H](N)C(=O)O; Dap = NC[C@H](N)C(=O)O; Sar = CNCC(=O)O

One test has as its target T1, Human PD-L1/PD-1 (Homo sapiens, UniProt Q9NZQ7).
T1 construct: made in house; host or cells: HEK293T
Nature of the test: HTRF PD-1-Ig/PD-L1-His binding assay (human PD-L1). The note with it: cluster symbol; read-out: HTRF IC50 cluster. A digest of the protocol:
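Soluble Fc-fused PD-1 and His-tagged PD-L1 (truncated before the transmembrane region) were combined in dPBS with 0.1% (w/v) BSA and 0.05% (v/v) Tween-20. Binding was read by HTRF using europium cryptate anti-Ig antibody (1 nM final) and APC anti-His antibody (20 nM final).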
For orientation: In TR-FRET formats the signal depends on donor and acceptor labels being close together.

Test [1] concerns the target T2, LK35.2-hPD-L1 cells / PE-labeled PD-1-Ig (Homo sapiens, UniProt Q9NZQ7).
T2 construct: expressed in transfected cells; host or cells: LK35.2 mouse B cell line
Nature of the test: LK35.2-hPD-L1 cell binding high-content screening assay. As to conditions: cluster symbol, read-out: CBA IC50 cluster. The test is classed as cell-based. A digest of the protocol:
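Readout: high-content imaging of PE-PD-1-Ig bound to LK35.2-hPD-L1 cells. Cells plated overnight (RPMI/10% FCS); compound + 1 nM PE-PD-1-Ig, 1 h, 37 °C; 3× dPBS wash before imaging.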

Setting [2] is: cell line of CBA not given (LK35.2-hPD-L1 or 293T-hPD-L1).
The mark [3] stands for this setting: cell binding assay, cell line not given.

T1 sequence (Q9NZQ7 with tags, fused parts or gaps): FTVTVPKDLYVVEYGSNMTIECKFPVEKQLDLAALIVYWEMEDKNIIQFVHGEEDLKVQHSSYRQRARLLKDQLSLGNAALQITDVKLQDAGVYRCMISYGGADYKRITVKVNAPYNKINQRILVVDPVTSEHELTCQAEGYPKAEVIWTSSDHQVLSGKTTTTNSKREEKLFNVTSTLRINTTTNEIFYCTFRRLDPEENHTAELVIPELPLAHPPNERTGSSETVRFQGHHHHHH
T2 sequence (Q9NZQ7 19-290): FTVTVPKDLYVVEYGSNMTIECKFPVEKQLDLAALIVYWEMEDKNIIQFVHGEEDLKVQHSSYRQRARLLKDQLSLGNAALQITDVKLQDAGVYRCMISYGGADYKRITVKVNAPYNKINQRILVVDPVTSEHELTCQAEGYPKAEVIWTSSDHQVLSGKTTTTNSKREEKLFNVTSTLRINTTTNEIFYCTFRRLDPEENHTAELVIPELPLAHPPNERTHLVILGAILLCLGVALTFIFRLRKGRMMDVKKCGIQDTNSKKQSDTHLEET

What is called IC50 is the concentration that gives 50% inhibition. As for `CCCC[C@H]1C(=O)N(C)CC(=O)N[C@@H](CC(=O)O)C(=O)N[C@@H](C(C)C)C(=O)N(C)[C@@H](Cc2ccccc2)C(=O)N[C@@H](Cc2ccc(O)cc2)C(=O)N(C)CC(=O)N[C@@H](CCC(=O)O)C(=O)N[C@@H](Cc2ccc(O)cc2)C(=O)N[C@@H](CC(C)C)C(=O)N[C@H](C(=O)NCC(N)=O)CSCC(=O)N[C@@H](Cc2ccccc2)C(=O)N(C)[C@@H](Cc2ccccc2)C(=O)N1C` [Example 3072] (HELM PEPTIDE1{[O=C(C[*:3])[*:2]].F.[meF].[CCCC[C@@H](C(=O)[*:2])N(C)[*:1]].[Sar].D.V.[meF].Y.[Sar].E.Y.L.C.G.[am]}$PEPTIDE1,PEPTIDE1,1:R3-14:R3$$$V2.0), the IC50 on Human PD-L1/PD-1 is greater than 30.5 nM; in test [1] (setting [2]) it was greater than 74.3 nM.
On to `CCCC[C@H]1C(=O)N(C)CC(=O)N[C@@H](CC(=O)O)C(=O)N[C@@H](C(C)C)C(=O)N(C)[C@@H](Cc2ccccc2)C(=O)N[C@@H](Cc2ccc(O)cc2)C(=O)N(C)[C@@H](CCC(=O)O)C(=O)N[C@@H](Cc2csc3ccccc23)C(=O)N[C@@H](Cc2ccc(O)cc2)C(=O)N[C@@H](CC(C)C)C(=O)N[C@H](C(=O)NCC(N)=O)CSCC(=O)N[C@@H](Cc2ccccc2)C(=O)N(C)[C@@H](Cc2ccccc2)C(=O)N1C` [Example 3073] ({CH2CO}-F[NMeF][NMeNle][Sar]DV[NMeF]Y[NMeE][Bta]YLCG-NH2; thioether N-13), for which the IC50 lay within 0.385 to 6.74 nM on Human PD-L1/PD-1 and 4.78 to 72.9 nM in test [1] (setting [2]).
As for `CCCC[C@H]1C(=O)N(C)CC(=O)N[C@@H](CC(=O)O)C(=O)N[C@@H](C(C)C)C(=O)N(C)[C@@H](Cc2ccccc2)C(=O)N[C@@H](Cc2ccc(OC)c(OC)c2)C(=O)N(C)CC(=O)N[C@@H](Cc2c[nH]c3ccccc23)C(=O)N[C@@H](Cc2ccc(O)cc2)C(=O)N[C@@H](CC(C)C)C(=O)N[C@H](C(=O)NCC(N)=O)CSCC(=O)N[C@@H](Cc2ccccc2)C(=O)N(C)[C@@H](Cc2ccccc2)C(=O)N1C` [Example 3533] ({CH2CO}-F[NMeF][NMeNle][Sar]DV[NMeF][Phe(3,4-(OMe)2)][Sar]WYLCG-NH2; thioether N-13), the IC50 lay in the range of 6.76 to 30.3 nM on Human PD-L1/PD-1 and 4.78 to 72.9 nM in test [1] (setting [3]).
Consider `CCCC[C@H]1C(=O)N(C)[C@@H](CCCC)C(=O)N[C@@H](CCCNC(=N)N)C(=O)N[C@H](C(=O)NCC(N)=O)CSCC(=O)N[C@@H](Cc2ccc(O)cc2)C(=O)N(C)[C@@H](C)C(=O)N[C@@H](CC(N)=O)C(=O)N2CCC[C@H]2C(=O)N[C@@H](Cc2cnc[nH]2)C(=O)N[C@@H](CC(C)C)C(=O)N2CCC[C@H]2C(=O)N[C@@H](Cc2c[nH]c3ccccc23)C(=O)N[C@@H](CO)C(=O)N[C@@H](Cc2nc3ccccc3s2)C(=O)N1C` [Example 1129] ({CH2CO}-Y[NMeA]NPHLPWS[Ala(benzothiazol-2-yl)][NMeNle][NMeNle]RCG-NH2; thioether N-14), for which the IC50 at Human PD-L1/PD-1 is greater than 30.5 nM; in test [1] (setting [2]), greater than 74.3 nM.
Regarding `CCCC[C@H]1C(=O)N(C)[C@@H](CCCC)C(=O)N[C@@H](C)C(=O)N[C@H](C(=O)NCC(N)=O)CSCC(=O)N[C@@H](Cc2ccc(O)cc2)C(=O)N(C)[C@@H](C)C(=O)N[C@@H](CC(=O)O)C(=O)N2CCC[C@H]2C(=O)N[C@@H](Cc2cnc[nH]2)C(=O)N[C@@H](CCC(N)=O)C(=O)N2C[C@H](O)C[C@H]2C(=O)N[C@@H](Cc2c[nH]c3ccccc23)C(=O)N[C@@H](CCN)C(=O)N[C@@H](Cc2c[nH]c3ccccc23)C(=O)N1C` [Example 5039] ({CH2CO}-Y[NMeA]DPHQ[Hyp]W[Dab]W[NMeNle][NMeNle]ACG-NH2; thioether N-14), the values for the IC50 (on Human PD-L1/PD-1; in test [1] (setting [3])) were 0.385 to 6.74 nM and 0.158 to 4.71 nM, respectively.
For the molecule `CCCC[C@H]1C(=O)N(C)[C@@H](CCCC)C(=O)N[C@@H](CC(C)C)C(=O)N[C@H](C(=O)NCC(N)=O)CSCC(=O)N[C@@H](Cc2ccc(O)cc2)C(=O)N(C)[C@@H](C)C(=O)N[C@@H](CC(N)=O)C(=O)N2CCC[C@H]2C(=O)N[C@@H](CN)C(=O)N[C@@H](CC(C)(C)C)C(=O)N2C[C@H](O)C[C@H]2C(=O)N[C@@H](Cc2c[nH]c3ccccc23)C(=O)N[C@@H](CO)C(=O)N[C@@H](Cc2c[nH]c3ccccc23)C(=O)N1C` [Example 5083] ({CH2CO}-Y[NMeA]NP[Dap][tBuAla][Hyp]WSW[NMeNle][NMeNle]LCG-NH2; thioether N-14), the IC50 at Human PD-L1/PD-1 lay in the range of 0.385 to 6.74 nM; in test [1] (setting [3]), 0.158 to 4.71 nM.
Turning to `CCCC[C@H]1C(=O)N(C)[C@@H](CCCC)C(=O)N[C@@H](CCCNC(=N)N)C(=O)N[C@H](C(=O)NCC(N)=O)CSCC(=O)N[C@@H](Cc2ccc(O)cc2)C(=O)N(C)[C@@H](C)C(=O)N[C@@H](CCCCN)C(=O)N2CCC[C@H]2C(=O)N[C@@H](Cc2c[nH]cn2)C(=O)N[C@@H](CC(=O)O)C(=O)N2C[C@H](O)C[C@H]2C(=O)N[C@@H](Cc2c[nH]c3ccccc23)C(=O)N[C@@H](CO)C(=O)N[C@@H](Cc2c[nH]c3ccccc23)C(=O)N1C` [Example 5102] ({CH2CO}-Y[NMeA]KPHD[Hyp]WSW[NMeNle][NMeNle]RCG-NH2; thioether N-14), the IC50 on Human PD-L1/PD-1 fell in the range of 6.76 to 30.3 nM; in test [1] (setting [3]), 4.78 to 72.9 nM.
